Assay: GLP single oral dose pharmacokinetic assessment in beagle dogs
Assay type: in vivo
Procedure: Pharmacokinetic parameters in beagle dogs after a single oral administration of formulated capsules was determined in a GLP study. A validated bioanalytical method was used to determine the plasma concentration in 3 dogs/sex after capsule administration of 37.5, 75, and 150 mg/kg (50, 100, and 200 μmol/kg) of clinically formulated 3,4,3-L1(1,2-HOPO). […] Similarly, mean exposure, based on AUCinf, was 1979±777 hr·ng/ml and 4741 hr·ng/ml for low-dose males and females, respectively; 4317±1721 hr·ng/ml and 8610 hr·ng/ml for mid-dose males and females, respectively; and 12022±5458 hr·ng/ml and 8305±1607 hr·ng/ml for high-dose males and females, respectively. […] The mean t½ was consistently short across dose groups and ranged from 0.5 to 0.9 hr.

O=C(NCCCN(CCCCN(CCCNC(=O)c1cccc(=O)n1O)C(=O)c1cccc(=O)n1O)C(=O)c1cccc(=O)n1O)c1cccc(=O)n1O [3,4,3-L1(1,2-HOPO)]
mean AUCinf (high-dose (150 mg/kg) females): 8.305 ± 1.607 µg·h/mL | mean AUCinf (high-dose (150 mg/kg) males): 12.022 ± 5.458 µg·h/mL | mean Cmax and AUCinf, females compared with males (low and mid doses): 1.7- to 2.4 fold | mean AUCinf (low-dose (37.5 mg/kg) females): 4.741 µg·h/mL | mean AUCinf (low-dose (37.5 mg/kg) males): 1.979 ± 0.777 µg·h/mL | mean AUCinf (mid-dose (75 mg/kg) females): 8.61 µg·h/mL | mean AUCinf (mid-dose (75 mg/kg) males): 4.317 ± 1.721 µg·h/mL | mean t½ (oral, across dose groups, dogs): 30 to 54 min | Tmax (single oral capsule dose, 37.5, 75, and 150 mg/kg, dogs): 36 to 66 min

From patent publication US11684614B2, “Formulations of hydroxypyridonate actinide/lanthanide decorporation agents” (priority 2017, dated 2023)
